Reference: patent US9057082B2, “Generation of methane from hydrocarbon bearing materials” (Transworld Technologies Inc., priority 2004, dated 2015)

Tested on: anaerobic microbial consortium or consortia indigenous to the coal
Experiment: Hydrogen gas accumulated in headspace of amended Dietz coal slurries
Conditions: approximately 134 days of incubation
Text: Core samples from the Tongue River area in the northwest portion of the Powder River Basin, Dietz coal seam, were utilized for these experiments. The core was collected in the field in a manner that prevented oxygen exposure by placing it into a steel canister that was purged with argon. Gas in the core used for the experiments described herein was extensively desorbed during long-term storage and previous use.
Coal samples were passed through a small jaw crusher twice resulting in pulverized coal (to yield a particle size similar to that of granulated sugar) that was measured into serum bottles (5 g per bottle); manipulations were carried out in an anaerobic environment. […]
Bromoethanesulfonic acid (BESA), a methanogen inhibitor, was added to selected incubations. […] Hydrogen production in the amended slurries relative to sterile coal slurries was measured to identify the degree of stimulation.
After approximately 134 days of incubation, all of the coal slurries were sampled for the aqueous phase (0.5 of 10 ml) and for gas analysis including hydrogen, methane, carbon dioxide, radioactive methane, and radioactive carbon dioxide. Methane and carbon dioxide were determined using a Hewlett Packard 5890 gas chromatograph equipped with a thermal conductivity detector. Radiolabeled methane and carbon dioxide were determined using a gas proportional counter (Innus Systems, Tampa, Fla.). […]

Bromoethanesulfonic acid [BESA]
hydrogen gas accumulation in the headspace, result in words: Hydrogen accumulated to the greatest extent
